Experimental findings from article PMC9225715, “Development of PD3 and PD3-B for PDEδ inhibition to modulate KRAS activity” (Journal of Enzyme Inhibition and Medicinal Chemistry, 2022) are described below.

Series [1] addresses T1, PDEδ (Homo sapiens, UniProt O43924).
T1 construct: made in house; host or cells: E. coli BL21(DE3)
Put plainly: Fluorescence polarisation (FP)-based binding assay. To be noted: 0.5 µM PD titrated with PDEδ, PBS pH 7.2; mean ± SD of three independent experiments; read-out: Kd value. Here is the method: To evaluate the binding affinities of PDs to PDEδ, we also carried out a fluorescence polarisation (FP)-based binding assay after incubation of PDs with PDEδ. […] In the presence of 0.5 µM PD compounds, the polarisation value (mP value) increased following treatment with purified PDEδ in a dose-dependent manner until treatment with excess PDEδ induced saturation of binding. Among the tested compounds, 8 compounds were selected for further evaluation and SAR analysis. The binding curves for the selected 8 compounds are shown with their Kd values in Supplemental Figure S3.
(§1) Figure 3. Binding affinities of PDs measured by fluorescence polarisation. (A) Representative binding curve of PDs (PD3) titrated with PDEδ. The FP value was measured in PBS buffer (pH 7.2) containing 8 concentrations (0, 0.5, 1, 2, 4, 8, 16 and 32 μM) of PDEδ mixed with 0.5 μM PDs. Ex: 440 nm, Em: 526 nm; (B) Kd value and half-life of each compound; (C, D) Kinetic trace of PD3 and PD7 in the competition assay. PD3 was shown as a compound with the longest retention time (slow dissociation), whereas PD7 was shown as a compound with the shortest retention time (fast dissociation). The half-life was obtained by a competition binding assay using excess deltarasin. The optimal concentration of PDEδ for the competition assay was determined using the Kd value and PD concentration (0.5 μM) for making more than 68% of the binding complex. Ex: 430 nm, Em: 520 nm. TEXT PRINTED IN THE PICTURE: (A) PD3: Best-fit values Bmax: 261.7; Best-fit values Kd: 0.4991; Std. Error Bmax: 17.98; Std. […] Error Bmax 17.98 (last digit 8 or 6) and Std. Error Kd 0.1956 (5 and 6 not certain) / Panels C and D: k and half-life are printed without a label of their own; assigned to PD3 and PD7 from the panel legends (PDEδ+PD3+Del, PDEδ+PD7+Del)
PDEδ was diluted to make a series of two-fold dilutions with a starting concentration of 32 µM. The diluted solution was mixed with PBS buffer [137 mM NaCl, 2.7 mM KCl, 10 mM Na2HPO4, 2 mM KH2PO4 (pH 7.2)] and then the mixture was loaded on a 96 well black plate (SPL life Science, Gyeonggi-do, Republic of Korea). Compounds were transferred to the wells of assay plate and the final concentration of compounds was fixed to 0.5 µM. After the addition of the compound, the assay plates were incubated for 2 h at 4 °C. FP values were detected by SpectraMax M5 microplate reader (Molecular Devices, San Jose, CA) at the maximum absorption and emission wavelengths of PD compounds in assay buffer. Kd values were determined by previously reported method.

The target in series [2] is T1, PDEδ. In words: FP-based competition binding assay using excess deltarasin. Here is the method: as §1
To confirm that the PD compound occupies the same farnesylation binding site as deltarasin in PDEδ and to exclude the possibility that the FP signal resulted from non-specific hydrophobic interactions, we carried out a FP-based competition assay. PDs (0.5 µM) were incubated with the purified PDEδ protein for 2 h to ensure complete binding between the compound and the protein. Then, deltarasin was added to replace the PD compound in the prenyl binding pocket of PDEδ, which decreased the FP due to the free rotation of the released PD compound. As shown in Figure 3(B), the reverse correlation between Kd values and half-lives was observed (Figure 3(B) and Table 1). […] The rate constants and half-lives were measured only when the increased concentration of deltarasin produced concentration-independent kinetic parameters, which reflects complete displacement of the binding site with the deltarasin. The kinetic trace was fit to a single exponential decay to generate the dissociation rate constant and half-life. Given that the Kd value is a ratio of koff/kon in a simple bimolecular binding model, the measured half-life and Kd are not always matched due to the contribution from the association rate constant. Figure 3(C) (PD3) and 3 D (PD7) show a representative kinetic trace obtained in the competition assay.
Deltarasin, a well-known PDEδ inhibitor, was purchased from Chemietek (Indianapolis, IN) for the competition assay. Assay buffer and the plate were the same as used in fluorescence polarisation assay. The optimal concentration of PDEδ was determined based on the Kd values and ligand concentration (0.5 µM) to ensure the formation of ligand-protein complex. The mixture of PDEδ and compounds were incubated for 2 h at 4 °C. After adding deltarasin to the mixture, FP was immediately recorded by SpectraMax M5 microplate reader (Molecular Devices, San Jose, CA) with excitation at 430 nm and emission at 520 nm. In SpectraMax M5 microplate reader, single excitation and emission wavelengths need to be used for testing all compounds. Therefore, Ex 430/Em 520 was used for competition binding assay. The selected ex/em wavelengths have only a difference of less than 10 nm from the maximum wavelengths, and there was no critical issue for conducting assay. The kinetic trace was fit to a single exponential decay to generate dissociation rate constant and half-life.

In series [3] the test system is PANC-1 cells. In words: Immunofluorescence staining of RAS localisation. Format: cell-based, human. As to conditions: 18 h, anti-pan RAS antibody, PD3 10 µM, deltarasin 2, 5, 10 µM. From the text: Finally, we investigated whether PD3 changes KRAS localisation by inhibiting the interaction of KRAS with PDEδ in human pancreatic cancer cells. PDEδ binds the farnesylated RAS proteins and stabilises them[19]. Therefore, PDEδ activity leads to the accumulation of RAS at the plasma membrane (PM); conversely, downmodulation of PDEδ enhances RAS diffusion in the cytoplasm. To confirm the effect of PD3 on the relocalization of RAS, we carried out immunofluorescence staining of PANC-1 cells with an anti-RAS antibody (Figure 6). […] Conversely, in the DMSO-treated control group, RAS was mainly localised in the PM of PANC-1 cells. […] It is supposed that PD3 can induce changes in RAS localisation from the plasma membrane by interrupting the protein–protein interaction of KRAS-PDEδ.
Figure 6. Immunofluorescence of PANC-1 cells with an anti-Pan-RAS antibody (red). DMSO was used as a negative control, and deltarasin was used as a positive control. Ex: 633 nm, Em: ≥638 nm. The scale bar represents 20 µm.
PANC-1 cells were seeded with cover slip in a 6-well cell culture plate (SPL life Science, Gyeonggi-do, Republic of Korea) and incubated for 24 h under 37 °C and 5% CO2 prior to the experiment. […] The fluorescence images were detected by confocal microscope (TCS-SP8 confocal laser scanning microscope, Leica, Germany). Fluorescence signal was obtained by excitation at 633 nm and emission at ≥638 nm.

The target of series [4] is T1, PDEδ. In words: Fluorescence measurement after incubation with recombinant PDEδ. The series is classed as binding. As to conditions: 2 µM PD + 2 µM PDEδ, 20 mM Tris buffer pH 7.5, Ex 280 nm. The protocol: With the structural rationale for the binding to PDEδ from the molecular docking studies, we measured the fluorescence responses of the PDs after incubation with recombinant PDEδ proteins to confirm the binding of PDs to PDEδ. We envisioned that the hydrophobic environment of the prenyl binding pocket of PDEδ, as depicted in Figure 1(C), could enhance the fluorescent signal due to the solvatochromic characteristics of IQ scaffold. In addition, tryptophan residues near the binding site of PDEδ and the fluorophore of PDs could act as a fluorescence resonance energy transfer (FRET) pair. […] All recoded spectra of PDs are depicted in Supplemental Figure S1. To compare the binding abilities of PD derivatives to the target protein, same concentration (2 µM) of PD compound was treated and then fluorescence intensity was measured in Spectrofluorometer FP-6500.
The fluorescence changes were measured to determine the interaction between PD compounds and PDEδ protein. The fluorescence spectra were obtained under Tris buffer [20 mM Tris-HCl (pH 7.5), 100 mM NaCl] at 20 °C. The concentration of PDEδ was 2 µM. After the addition of 2 µM PD compound, the mixture was gently inverted 3 times and then incubated for 1 min. The emission spectra were recorded on Spectrofluorometer FP-6500 (JASCO, Tokyo, Japan) at Ex 280 nm. The band width was 3 nm for excitation and 5 nm for emission.

[5] abbreviates: retention in PDEδ on displacement by excess deltarasin, 0.5 µM PD, mean ± SD of three independent experiments.

What is called Kd is a measure of binding affinity in units of concentration.

Turning to `COc1ccc(-c2nc3ccccc3c3cc4ccccn4c23)cc1` [PD5], the equilibrium dissociation constant (Kd) in series [1] amounted to 720 ± 85 nM. In series [2] (setting [5]), this compound returned a Half-life of 20 ± 4 min.

With `c1ccc(Cn2c(-c3ccc(OC[C@H](C4CCNCC4)n4c(-c5ccccc5)nc5ccccc54)cc3)nc3ccccc32)cc1` [deltarasin, reference compound], the “RAS localisation at the plasma membrane (PM)” value in series [3] is “reduced the amount of RAS at the PM”.

For the compound `Brc1ccc(-c2nc3ccccc3c3cc4ccccn4c23)cc1` [PD1], in series [1], the Kd was found to be 284 ± 140 nM. For the same compound, in series [2] (setting [5]), the Half-life stood at 36 ± 2 min.

Take `c1csc(-c2nc3ccccc3c3cc4ccccn4c23)c1` [PD25]: in series [1], the Kd is 425 ± 75 nM. This compound came in with a Half-life in series [2] (setting [5]) of 26 ± 3 min.

For `c1ccc2cc(-c3nc4ccccc4c4cc5ccccn5c34)ccc2c1` [PD8], the Kd in series [1] came out at 643 ± 128 nM. The compound also registered a Half-life in series [2] (setting [5]) of 35 ± 7 min.

As to `c1ccc(-c2nc3ccccc3c3cc4ccccn4c23)cc1` [PD4], the Kd in series [1] amounted to 505 ± 33 nM. Further, in series [2] (setting [5]), the Half-life turned out to be 31 ± 9 min.

Take `COc1ccc(-c2nc3ccccc3c3cc4ccccn4c23)cc1OC` [PD6]: the “Fluorescence response upon incubation with PDEδ” value in series [4] is reported as “exceeded the maximum detection limit of Spectrofluorometer”. Moreover, the Kd in series [1] came to 1280 ± 261 nM. In series [2] (setting [5]), the Half-life stood at 19 ± 3 min.

In the case of `c1ccc2c(-c3nc4ccccc4c4cc5ccccn5c34)cccc2c1` [PD7], in series [1], the Kd was determined as 1540 ± 180 nM. Also, the Half-life in series [2] (representative kinetic trace, single exponential decay) came to 13 min; in series [2] (setting [5]), 14 ± 1 min. For the same compound, in series [2] (representative kinetic trace, single exponential decay, read-out: dissociation rate constant k (converted)), the koff was 0.0009 s⁻¹.
